Active and inactive are the calls of the source. No cut-off for these calls is given here.
Assays:
[1] = system: J774.A1; experiment: cells; settings: Mus musculus
Description: Antiinflammatory activity in LPS-induced mouse J774.A1 cells assessed as inhibition of IL-6 release pretreated for 30 mins followed by LPS stimulation and measured after 24 hrs by ELISA

[2] = AUC (0 to t) in male Sprague-Dawley rat at 10 mg/kg, po measured upto 24 hrs; type: ADME, organism-based; settings: in vivo
[3] = system: Mus musculus; experiment: Antiinflammatory activity in LPS induced C57BL/6 mouse model of acute lung injury assessed as reduction in inflammatory exudation in lung at 20 mg/kg, ip preadministered for 30 mins followed by LPS administration and measured after 6 hrs by H and E staining based analysis; type: functional, organism-based; settings: time 6.5 hrs
[4] = system: RAW264.7; experiment: Inhibition of NFkappaB/MAPK signaling pathway in mouse RAW264.7 cells assessed as reduction in LPS-induced p65 phosphorylation at 50 uM by Western blot analysis; type: cell-based
[5] = system: Mus musculus; experiment: Antiinflammatory activity in male C57BL/6 mouse model of DSS-induced ulcerative colitis assessed as reduction in IL-6 level in serum at 20 mg/kg, po administered for 11 days with subsequent administration of DSS for 8 days by ELISA; type: functional, organism-based; settings: time 11.0 day
[6] = system: Mus musculus; experiment: Antiinflammatory activity in male C57BL/6 mouse model of DSS-induced ulcerative colitis assessed as reversal of invisible pulp structure at 10 to 20 mg/kg, po administered for 11 days with subsequent administration of DSS for 8 days by H and E staining based analysis; type: functional, organism-based; settings: dose 10-20 mg/kg, time 11.0 day
[7] = system: Mus musculus; experiment: Antiinflammatory activity in male C57BL/6 mouse model of DSS-induced ulcerative colitis assessed as increase in body weight at 20 mg/kg, po administered for 11 days with subsequent administration of DSS for 8 days and measured on day 11; type: functional, organism-based; settings: time 11.0 day
[8] = biological target: Cyclin-dependent kinase 16 (Homo sapiens) (UniProt Q00536); experiment: Inhibition of human PCTAIREI assessed as residual activity at 10 uM by Eurofins kinase profiler method relative to control
[9] = Half life in male Sprague-Dawley rat at 1 mg/kg, iv administered via tail vein and measured upto 24 hrs; type: ADME, organism-based; settings: in vivo
[10] = Cmax in male Sprague-Dawley rat at 10 mg/kg, po measured upto 24 hrs; type: ADME, organism-based; settings: in vivo
[11] = system: Mus musculus; experiment: Antiinflammatory activity in male C57BL/6 mouse model of DSS-induced ulcerative colitis assessed as reduction in macrophage infiltration in colon at 10 to 20 mg/kg, po administered for 11 days with subsequent administration of DSS for 8 days by F4/80 labeling based immunohistochemistry analysis; type: functional, organism-based; settings: dose 10-20 mg/kg, time 11.0 day
[12] = Clearance in male Sprague-Dawley rat at 1 mg/kg, iv administered via tail vein and measured upto 24 hrs; type: ADME, organism-based; settings: in vivo
[13] = system: RAW264.7; experiment: cells; settings: Mus musculus
Description: Antiinflammatory activity in LPS-induced mouse RAW264.7 cells assessed as inhibition of IL-6 release pretreated for 30 mins followed by LPS stimulation and measured after 24 hrs by ELISA

[14] = system: RAW264.7; experiment: Inhibition of NFkappaB signaling pathway in LPS-induced mouse RAW264.7 cells assessed as inhibition of p65 phosphorylation by Western blot analysis; type: cell-based; settings: dose 2.5-10 µM
[15] = system: Mus musculus; experiment: Antiinflammatory activity in LPS induced C57BL/6 mouse model of acute lung injury assessed as reduction in spleen over activation at 20 to 40 mg/kg, ip preadministered for 30 mins followed by LPS administration and measured after 6 hrs by H and E staining based analysis; type: functional, organism-based; settings: dose 20-40 mg/kg, time 6.5 hrs
[16] = system: Mus musculus; experiment: Antiinflammatory activity in LPS induced C57BL/6 mouse model of acute lung injury assessed as inhibition of IL-6 release in BALF at 20 to 40 mg/kg, ip preadministered for 30 mins followed by LPS administration and measured after 6 hrs by ELISA; type: functional, organism-based; settings: dose 20-40 mg/kg, time 6.5 hrs
[17] = system: RAW264.7; experiment: Antiinflammatory activity in LPS-induced mouse RAW264.7 cells assessed as inhibition of IL-6 release at 10 uM pretreated for 30 mins followed by LPS stimulation and measured after 24 hrs by ELISA relative to control; type: functional; settings: time 24.5 hrs
[18] = system: Mus musculus; experiment: Antiinflammatory activity in male C57BL/6 mouse model of DSS-induced ulcerative colitis assessed as reduction in macrophage infiltration in spleen at 10 to 20 mg/kg, po administered for 11 days with subsequent administration of DSS for 8 days by F4/80 labeling based immunohistochemistry analysis; type: functional, organism-based; settings: dose 10-20 mg/kg, time 11.0 day
[19] = system: THP-1; experiment: cells; settings: Homo sapiens
Description: Antiinflammatory activity in LPS-induced human THP-1 cells assessed as inhibition of TNF-alpha release pretreated for 30 mins followed by LPS stimulation and measured after 24 hrs by ELISA

[20] = system: Mus musculus; experiment: Antiinflammatory activity in male C57BL/6 mouse model of DSS-induced ulcerative colitis assessed as reduction in DAI score at 20 mg/kg, po administered for 11 days with subsequent administration of DSS for 8 days; type: functional, organism-based; settings: time 11.0 day
[21] = system: Mus musculus; experiment: Antiinflammatory activity in LPS induced C57BL/6 mouse model of acute lung injury assessed as inhibition of IL-6 release in serum at 20 to 40 mg/kg, ip preadministered for 30 mins followed by LPS administration and measured after 6 hrs by ELISA; type: functional, organism-based; settings: dose 20-40 mg/kg, time 6.5 hrs
[22] = system: Mus musculus; experiment: In vivo binding affinity to IRAK4 in DSS-induced ulcerative colitis C57BL/6 mouse colon assessed as thermal stabilization at 10 to 20 mg/kg, po administered for 11 days with subsequent administration of DSS for 8 days by CETSA; type: functional, organism-based; settings: dose 10-20 mg/kg, time 11.0 day
[23] = biological target: Mitogen-activated protein kinase 14 (Homo sapiens) (UniProt Q16539); experiment: Inhibition of p38alpha (unknown origin) at 10 uM relative to control
[24] = system: Mus musculus; experiment: Antiinflammatory activity in LPS induced C57BL/6 mouse model of acute lung injury assessed as reduction in over activation of spleen at 20 to 40 mg/kg, ip preadministered for 30 mins followed by LPS administration and measured after 6 hrs by F4/80 labeling based immunohistochemical analysis; type: functional, organism-based; settings: dose 20-40 mg/kg, time 6.5 hrs
[25] = Half life in male Sprague-Dawley rat at 10 mg/kg, po measured upto 24 hrs; type: ADME, organism-based; settings: in vivo
[26] = system: Mus musculus; experiment: Antiinflammatory activity in male C57BL/6 mouse model of DSS-induced ulcerative colitis assessed as reduction in colonic structure destruction at 10 to 20 mg/kg, po administered for 11 days with subsequent administration of DSS for 8 days by H and E staining based analysis; type: functional, organism-based; settings: dose 10-20 mg/kg, time 11.0 day
[27] = Oral bioavailability in male Sprague-Dawley rat at 10 mg/kg measured upto 24 hrs; type: ADME, organism-based; settings: in vivo
[28] = Cmax in male Sprague-Dawley rat at 1 mg/kg, iv administered via tail vein and measured upto 24 hrs; type: ADME, organism-based; settings: in vivo

Chain of Mitogen-activated protein kinase 14 (Homo sapiens) (Q16539 whole entry): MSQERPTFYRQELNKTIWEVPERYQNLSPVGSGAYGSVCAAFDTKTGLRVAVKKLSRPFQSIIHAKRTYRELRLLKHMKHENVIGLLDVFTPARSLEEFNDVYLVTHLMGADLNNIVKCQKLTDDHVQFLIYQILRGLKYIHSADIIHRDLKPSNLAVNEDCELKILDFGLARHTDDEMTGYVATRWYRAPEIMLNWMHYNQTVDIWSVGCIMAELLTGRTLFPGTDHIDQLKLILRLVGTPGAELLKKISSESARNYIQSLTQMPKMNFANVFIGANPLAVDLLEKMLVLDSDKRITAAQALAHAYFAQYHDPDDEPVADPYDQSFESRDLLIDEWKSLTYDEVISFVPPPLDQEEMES
Chain of Cyclin-dependent kinase 16 (Homo sapiens) (Q00536 whole entry): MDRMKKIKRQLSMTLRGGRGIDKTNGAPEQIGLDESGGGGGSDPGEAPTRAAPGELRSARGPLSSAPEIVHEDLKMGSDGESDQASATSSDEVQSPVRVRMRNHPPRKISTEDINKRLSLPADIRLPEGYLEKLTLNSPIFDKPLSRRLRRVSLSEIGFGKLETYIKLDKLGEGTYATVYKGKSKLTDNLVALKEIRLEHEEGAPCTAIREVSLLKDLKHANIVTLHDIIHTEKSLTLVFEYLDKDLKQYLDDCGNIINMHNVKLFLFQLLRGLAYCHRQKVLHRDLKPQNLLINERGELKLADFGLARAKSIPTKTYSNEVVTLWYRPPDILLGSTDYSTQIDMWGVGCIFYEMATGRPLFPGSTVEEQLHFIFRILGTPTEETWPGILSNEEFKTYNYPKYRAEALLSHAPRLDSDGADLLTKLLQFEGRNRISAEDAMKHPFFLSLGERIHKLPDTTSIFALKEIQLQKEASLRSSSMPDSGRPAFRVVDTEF

For `COc1cc2c(O[C@H]3CC[C@@H](N)CC3)ncnc2cc1OCc1ccccc1`, the IC50 [1] was 1540 nM, the AUCt [2] was 10653.6 ng·h/mL and the Activity [3] was “Active”. For the same compound, the inhibition [4] was “Active”, the Activity [5] was “Active” and the Activity [6] was “Active”. For the same compound, the Activity [7] was “Active”, the Activity [8] was 70% and the half-life [9] was 2.8 h. For the same compound, the Cmax [10] was 1250 ng/mL, the Activity [11] was “Active” and the clearance [12] was 3.83 mL/min/kg. The IC50 [13] was 1270 nM, the inhibition [14] was “Dose-Dependent Effect” and the Activity [15] was “Active”. For the same compound, the Activity [16] was “Active”, the inhibition at 10 µM [17] was 92.4% and the Activity [18] was “Active”. For the same compound, the IC50 [19] was 600 nM, the Activity [20] was “Active” and the Activity [21] was “Active”. The Activity [22] was “Active”, the inhibition [23] was 0.03% and the Activity [24] was “Active”. For the same compound, the half-life [25] was 5.6 h, the Activity [26] was “Active” and the bioavailability [27] was 28.1%. It also gave a Cmax [28] of 6260 ng/mL.
